Tests used:
[1] = tested on: foot mucosa of slugs (species Arion); assay: Slug mucosal toxicity test, Example 1 (15 min daily treatment, five days); assay type: in vivo; conditions: in vivo
From the text: Initially, the slugs are kept on a culture under controlled conditions of temperature and humidity until they have reached a stable body weight. The purpose of achieving a stable body weight is to improve the reproducibility of the results, particularly as the release of substances from the slugs may conveniently be measured in terms of the body weight thereof. The slugs are then isolated from the culture and placed in a vented plastic box lined with moist paper towel and placed at 95% relative humidity at 20° C. seven days before the start of an experiment. The slugs were not bred in any particular way, i.e. they were wild slugs. It is anticipated that even more accurate and reproducible results can be obtained by selective breeding of the slugs, although as shown by the test results this is not a necessary requirement of the present invention to obtain accurate and useful data.
The test procedure is simple and rapid. The chemical substance to be tested is applied directly to the mucosal membrane of a slug, e.g. to the foot, by placing the slug individually in a petri dish containing the test substance. Slugs treated with phosphate buffered saline are used as a negative control. As a positive control slugs treated with a known toxic substance, benzalkonium chloride, were used.
Because the mucosal epithelium of interest is located at the outside of the slug the effect of substances can be easily observed. […] This can also be simply measured by weighing the petri dish before and after the treatment of the slugs with the chemical substance (with the slugs removed in each case). Additionally an indirect response to epithelial damage caused by a chemical substance may be determined by the reduction of the body weight of the slugs due to the leakage of haemolymphatic fluids through the damaged foot surface.
After the treatment the slugs are transferred individually to a fresh petri dish containing phosphate buffered saline. After a suitable exposure time, e.g. 1 hour the phosphate buffered saline is collected and analysed for the presence of proteins and/or enzymes, e.g. lactate dehydrogenase and/or alkaline phosphatase, or other marker substances released from the foot or epithelium of the slug, for example membrane associated components such as phospholipids or cholesterol. This procedure can be repeated after periods of several hours in order to determine the reversibility of the cell damage caused by the test chemical substance. The concentration or amount of the chemical substance to be tested can be changed and the influence of the concentration can be easily examined. The exposure time can also be changed if required. The slugs can be treated during several successive days in order to investigate the subchronical effect of substances on the foot mucosa.
Seven days before the start of the experiment the slugs were isolated in a plastic box lined with moist paper towel and placed at 95% relative humidity at 20° C. As test substances didecanyol-L-α-phosphatidylcholine (DDPC) and sodium deoxycholate (SDC) were selected. Benzalkonium chloride (1% w/v), SDC (1% w/v) and DDPC (1%, w/v) were prepared in phosphate buffered saline (PBS, pH 7.4). […] During the test the slugs are preferably kept in a generally calm and normal state and are not subjected to mechanical vibrations or mechanical or electrical disturbances which may affect mucus production.
The enzymes (lactate dehydrogenase (LDH) and alkaline phosphatase (ALP)) and total protein released into the PBS were determined. The slugs were weighed before and after the incubation period to determine the body weight changes. The mucus production was measured by weighing the petri dishes before and after the treatment with a test substance. The results are shown in Table 1 and shown graphically in FIGS. 1 to 5.

[2] = tested on: foot mucosa of slugs of species Arion; assay: Slug mucosal toxicity test, Example 2 (15 min daily treatment, four days); conditions: for % WL, weight loss as reduction in body weight caused by the 15 minutes of treatment / % MP, mucus production as % of the body weight at the start of the day before the treatment: 1% w/v in PBS; for % MP, mucus production as % of the body weight at the start of the day before the treatment / ALP released into PBS / LDH released into PBS / Protein released into PBS: 15 min; for ALP released into PBS / LDH released into PBS / Protein released into PBS: 1% w/v, total mean of 3 samples/day per slug
Method: As test substance a β-blocking agent propranolo HCl (1% w/v) was used. Benzalkonium chloride (1% w/v) and Propranolol (1% w/v) were prepared in PBS (pH 7.4). The slugs were daily incubated during 15 min with the test solution during four days. After the incubation period the slugs were placed on 500 μL PBS in a petri dish. The PBS was sampled every hour and refreshed with 500 μL PBS for 3 hours after the treatment.
The enzymes (LDH, ALP) and the total protein released into the PBS were determined. The change in body weight and the mucus production caused by the treatment were examined.

[3] = tested on: foot mucosa of slugs of species Arion; assay type: in vivo; conditions: in vivo
[4] = tested on: foot mucosa of slugs of species Limax; assay type: in vivo; conditions: in vivo
Method: Slugs of the species Limax are terrestial slugs have lungs and also a small internal shell. As test substances hydroxypropyl-β-cyclodextrin (HPβCD), sodium tauro-24,25-dihdrofiisidate (STDHF) and sodium deoxycholate were selected. Benzalkonium chloride (1% w/v), HPβCD (5% w/v), STDHF (1% w/v) and SDC (1% w/v) were prepared in phosphate buffered saline (PBS, pH 7.4).
The enzymes lactate dehydrogenase (LDH) and alkaline phosphatase (ALP) and total protein released into the PBS were determined. The change in body weight and mucus production caused by the treatment were examined.

## Benzalkonium chloride
[1]
  membrane damage (in words): severe membrane damage
[2]; day 1
  % WL, weight loss as reduction in body weight caused by the 15 minutes of treatment: 7.17%
  % MP, mucus production as % of the body weight at the start of the day before the treatment: 3.28%
  ALP released into PBS: 0.56 U/L
  LDH released into PBS: 1.92 U/L
  Protein released into PBS: 8.36 μg/30 μL
[2]; day 2
  % WL, weight loss as reduction in body weight caused by the 15 minutes of treatment: 4.32%
  % MP, mucus production as % of the body weight at the start of the day before the treatment: 2.75%
  ALP released into PBS: 3.42 U/L
  LDH released into PBS: 6.27 U/L
  Protein released into PBS: 4.08 μg/30 μL
[2]; day 3
  % WL, weight loss as reduction in body weight caused by the 15 minutes of treatment: 2.87%
  % MP, mucus production as % of the body weight at the start of the day before the treatment: 2.35%
  ALP released into PBS: 5.64 U/L
  LDH released into PBS: 8.11 U/L
  Protein released into PBS: 11.69 μg/30 μL
[2]; day 4
  % WL, weight loss as reduction in body weight caused by the 15 minutes of treatment: 3.61%
  % MP, mucus production as % of the body weight at the start of the day before the treatment: 3.09%
  ALP released into PBS: 15.59 U/L
  LDH released into PBS: 48.65 U/L
  Protein released into PBS: 11.79 μg/30 μL
[3]
  membrane damage (in words): severe membrane damage
  ranking order of increasing toxicity: PBS, 5% HPβCD<1% STDHF<1% SDC and 1% BAC
  reduction in body weight to % of the initial weight: about 50%
[4]
  membrane damage (in words): severe membrane damage
  ranking order of increasing toxicity: PBS, 5% HPβCD<1% STDHF<1% SDC and 1% BAC
  reduction in body weight to % of the initial weight: about 50%
